# Source: US20100093748A1, “SUBSTITUTED PIPERIDINES HAVING PROTEIN KINASE INHIBITING ACTIVITY” (ASTEX THERAPEUTICS LIMITED, priority 2006, published 2010)
# Target: T1, PKB-PIF fusion protein (Homo sapiens, UniProt P31751)
# T1 construct: PIF (fusion partner); made in house
# Assay: Measurement of PKB kinase inhibitory activity (IC50), radiometric filter plate assay
# Assay type: biochemical
# Conditions: 0.6 nM enzyme, 30 μM ATP, AKTide-2T substrate, 20 minutes
# Excerpt: The inhibition of protein kinase B (PKB) activity by compounds can be determined essentially as described by Andjelkovic et al. (Mol. Cell. Biol. 19, 5061-5072 (1999)) but using a fusion protein described as PKB-PIF and described in full by Yang et al (Nature Structural Biology 9, 940-944 (2002)). The protein is purified and activated with PDK1 as described by Yang et al. The peptide AKTide-2T (H-A-R-K-R-E-R-T-Y-S-F-G-H-H-A-OH) obtained from Calbiochem (#123900) is used as a substrate. A final concentration of 0.6 nM enzyme is used in a buffer that includes 20 mM MOPS pH 7.2, 30 μM ATP/γ^33P-ATP and 25 µM substrate. Compounds are added in DMSO solution to a final DMSO concentration of 2.5%. The reaction is allowed to proceed for 20 minutes before addition of excess orthophosphoric acid to quench activity. The reaction mixture is transferred to a phosphocellulose filter plate where the peptide binds and the unused ATP is washed away. After washing, scintillant is added and the incorporated activity measured by scintillation counting.
# The % inhibition of the PKB activity is calculated and plotted in order to determine the concentration of test compound required to inhibit 50% of the PKB activity (IC50).
# T1 sequence (P31751 with tags, fused parts or gaps limits assumed): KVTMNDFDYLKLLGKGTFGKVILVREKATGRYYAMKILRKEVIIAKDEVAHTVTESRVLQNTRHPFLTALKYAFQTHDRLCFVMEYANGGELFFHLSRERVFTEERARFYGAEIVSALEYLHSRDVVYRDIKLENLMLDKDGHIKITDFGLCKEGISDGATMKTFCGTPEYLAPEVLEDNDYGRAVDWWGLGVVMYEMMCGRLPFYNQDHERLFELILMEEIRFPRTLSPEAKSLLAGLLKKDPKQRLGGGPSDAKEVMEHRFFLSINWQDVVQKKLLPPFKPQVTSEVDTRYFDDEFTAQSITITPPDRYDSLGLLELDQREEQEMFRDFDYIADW
row,Structure (SMILES),IC50 [µM]
1,"CNC1(c2nc3ccccc3[nH]2)CCN(c2ncnc3[nH]ccc23)CC1 [Example 33, [4-(1H-benzoimidazol-2-yl)-1-(7H-pyrrolo[2,3-d]pyrimidin-4-yl)-piperidin-4-yl]-methyl-amine]",< 1
2,"NC1(c2nc3ccccc3[nH]2)CCN(c2ccnc3[nH]ccc23)CC1 [Example 19, 4-(1H-benzoimidazol-2-yl)-1-(1H-pyrrolo[2,3-b]pyridin-4-yl)-piperidin-4-ylamine]",< 0.1
3,"NC1(c2ncc(-c3ccccc3)o2)CCN(c2ncnc3[nH]ccc23)CC1 [Example 40, 4-(5-Phenyl-oxazol-2-yl)-1-(7H-pyrrolo[2,3-d]pyrimidin-4-yl)-piperidin-4-ylamine]",< 1
4,NC1(c2nc3cnccc3[nH]2)CCN(c2ncnc3[nH]ccc23)CC1 [Example 10],< 0.1
5,"NC1(c2ncc(-c3ccccc3)[nH]2)CCN(c2ccnc3[nH]ccc23)CC1 [Example 41, 4-(5-phenyl-1H-imidazol-2-yl)-1-(1H-pyrrolo[2,3-b]pyridin-4-yl)-piperidin-4-ylamine]",< 0.1
6,"NCC1(c2nc3ccccc3[nH]2)CCN(c2ncnc3[nH]ccc23)CC1 [Example 34, C-[4-(1H-Benzoimidazol-2-yl)-1-(7H-pyrrolo[2,3-d]pyrimidin-4-yl)-piperidin-4-yl]-methylamine]",< 0.1
7,"COc1cccc2[nH]c(C3(N)CCN(c4ncnc5[nH]ccc45)CC3)nc12 [Example 9, 4-(4-Methoxy-1H-benzoimidazol-2-yl)-1-(7H-pyrrolo[2,3-d]pyrimidin-4-yl)-piperidin-4-ylamine]",< 0.1

# Tested on: phosphorylation of Serine-9 residue in Glycogen Synthase Kinase-3beta as surrogate marker of cellular PKB (Akt) activity
# Assay: In vitro MDA-MB-468 human breast adenocarcinoma GSK-3 phosphorylation assay
# Assay type: cell-based
# Conditions: MDA-MB-468 cells, 2 hours compound incubation, mean IC50, read-out: Cell pGSK3b IC50
# Excerpt: This assay determines the ability of test compounds to inhibit phosphorylation of Serine-9 residue in Glycogen Synthase Kinase-3beta (GSK-313) as a surrogate marker of cellular PKB (Akt) activity, as assessed using Acumen Explorer Fluorescent Plate-Reader technology. A MDA-MB-468 human breast adenocarcinoma cell line (LGC Promochem, Teddington, Middlesex, UK, Catalogue No. HTB-132) was routinely maintained in Dulbecco's modified Eagle's growth medium (DMEM; Invitrogen Limited, Paisley, UK Catalogue No. 11966-025) containing 10% heat-inactivated foetal calf serum (FCS; Sigma, Poole, Dorset, UK, Catalogue No. F0392) and 1% L-glutamine (Gibco, Catalogue No. 25030-024) at 37° C. with 5% CO2 up to a confluency of 70-90%.
# For the phosphorylation assay, the cells were detached from the culture flask using Trypsin-EDTA (Invitrogen Limited, Catalogue No. 25300-062) and seeded into the wells of a black transparent-bottom Corning Costar Polystyrene 96 well plate (Fisher Scientific UK, Loughborough, Leicestershire, UK; Catalogue No. 3904 and DPS-130-020K) at a density of 5000 cells per well in 100 μl of complete growth media. The cells were incubated overnight at 37° C. with 5% CO2 to allow them to adhere.
# On day 2, the cells were treated with test compounds and incubated for 2 hours at 37° C. with 5% CO2. Test compounds were prepared as 10mM stock solutions in DMSO and dosed directly to required concentration into test wells using non-contact (acoustic dispensing of multiple 2.5 nl droplets directly into assay wells) ECHO dosing technology (Labcyte Inc Sunnyvale, Calif., USA). Each plate contained control wells without test compound.
# 20 μl of fixing buffer (Phosphate Buffered Saline (PBS) containing 10% formaldehyde; Sigma; Catalogue No. F1635) was then added to each well to give a final well concentration 1.6%. Plates were then incubated for 30 minutes at room temperature prior to the fixative being removed. Each well was washed once with 250 μl of PBS and then 50 μl PBS added to each well. PBS was then aspirated and cells permeabilised and blocked by incubating each well with 50 μl of permeabilisation/blocking buffer (PBS containing 0.5% Tween 20 (Sigma; Catalogue No. P5927) and 5% Marvel Milk Powder (Andrews Pharmacy Ltd, Macclesfield, Cheshire, UK; Catalogue No. APC100199)) for 1 hour at room temperature prior to staining.
# Following removal of Perm/Block buffer, 50 μl of primary anti-phospho-GSK-3β antibody (Cell Signalling Technology (New England Biolabs (Uk) Ltd.), Hitchin, Hertfordshire, UK; Catalogue No.9336 diluted 1:400 in Blocking buffer (PBS containing 5% Marvel and 0.05% Tween/Polysorbate 20) was added to each well and incubated overnight at 4° C.
# Each well was washed three times in 250 μl of wash buffer (PBS containing 0.05% polysorbate 20), and cells incubated for 1 hour at room temperature with 50 μl of secondary fluorescently-labelled anti-rabbit Alexa Fluor 488 antibody (Molecular Probes, Invitrogen Limited, Catalogue No. A11008) diluted 1:750 in blocking buffer. Plates were washed three times in 250 μl of wash buffer and stored containing 50 μl of PBS at 4° C. until required.
# Plates were analysed using an Acumen Explorer Plate-reader to quantify level of fluorescent signal that represents quantity of phosphorylated-GSK-313.
# IC50 calculation—IC50 is the concentration of compound required to give 50% effect over the range of activity affected by the compound, between maximum (no compound) and minimum (excess level of compound) response control data. IC50 values were determined by fitting background corrected, dose response assay data to a 4 parameter logistic curve fit equation model with the minimum response set to zero. This was done using an in-house developed algorithm within the Origin graphing software package (OriginLab Corporation, Northampton, Mass., USA). […]
row,Structure (SMILES),IC50 [µM]
1,"NC1(c2nc3cc(-c4ccccc4)ccc3[nH]2)CCN(c2ncnc3[nH]ccc23)CC1 [Example 68D, 4-(5-phenyl-1H-benzo[d]imidazol-2-yl)-1-(7H-pyrrolo[2,3-d]pyrimidin-4-yl)piperidin-4-amine]",2.4
2,"NCc1cc(-c2cccc3[nH]c(C4(N)CCN(c5ncnc6[nH]ccc56)CC4)nc23)ccc1F [Example 113, 4-(4-(3-(aminomethyl)-4-fluorophenyl)-1H-benzo[d]imidazol-2-yl)-1-(7H-pyrrolo[2,3-d]pyrimidin-4-yl)piperidin-4-amine]",0.038
3,"NCC1(c2nc3c(C4CCOC4)cccc3[nH]2)CCN(c2ncnc3[nH]ccc23)CC1 (stereo not shown) [Example 101, [4-[4-(oxolan-3-yl)-1H-benzimidazol-2-yl]-1-(7H-pyrrolo[3,2-e]pyrimidin-4-yl)piperidin-4-yl]methanamine]",0.0093
4,"NC1(c2nc3ccc(Cl)cc3[nH]2)CCN(c2ncnc3[nH]ncc23)CC1 [Example 22, 4-(6-chloro-1H-benzoimidazol-2-yl)-1-(1H-pyrazolo[3,4-d]pyrimidin-4-yl)-piperidin-4-ylamine]",0.77
5,"NCC1(c2nc3ccccc3[nH]2)CCN(c2ncnc3[nH]cc(Cl)c23)CC1 [Example 45, (4-(1H-benzo[d]imidazol-2-yl)-1-(5-chloro-7H-pyrrolo[2,3-d]pyrimidin-4-yl)piperidin-4-yl)methanamine]",0.087
6,"NCC1(c2nc3ccccc3[nH]2)CCN(c2ncnc3[nH]cc(Br)c23)CC1 [Example 48, (4-(1H-benzo[d]imidazol-2-yl)-1-(5-bromo-7H-pyrrolo[2,3-d]pyrimidin-4-yl)-piperidin-4-yl)methanamine]",0.21
7,"NCC1(c2nc3c(-c4ccccc4)cccc3[nH]2)CCN(c2ncnc3[nH]ccc23)CC1 [Example 99, (4-(4-phenyl-1H-benzo[d]imidazol-2-yl)-1-(7H-pyrrolo[2,3-d]pyrimidin-4-yl)piperidin-4-yl)methanamine]",0.015
8,"NC1(c2nc3c(-c4ccncc4)cccc3[nH]2)CCN(c2ncnc3[nH]ccc23)CC1 [Example 92, 4-(4-pyridin-4-yl-1H-benzimidazol-2-yl)-1-(7H-pyrrolo[3,2-e]pyrimidin-4-yl)piperidin-4-amine]",0.033
9,"NCC1(c2nc3ccccc3[nH]2)CCN(c2ncnc3[nH]cnc23)CC1 [Example 44, (4-(1H-benzo[d]imidazol-2-yl)-1-(9H-purin-6-yl)piperidin-4-yl)methanamine]",0.12
10,"CS(=O)(=O)Cc1ccccc1-c1cccc2[nH]c(C3(N)CCN(c4ncnc5[nH]ccc45)CC3)nc12 [Example 116, 4-(4-(2-(methylsulfonylmethyl)phenyl)-1H-benzo[d]imidazol-2-yl)-1-(7H-pyrrolo[2,3-d]pyrimidin-4-yl)piperidin-4-amine]",0.047
11,"Cc1ccc2[nH]c(C3(CN)CCN(c4ncnc5[nH]cc(Br)c45)CC3)nc2c1 [Example 98, (1-(5-bromo-7H-pyrrolo[2,3-d]pyrimidin-4-yl)-4-(5-methyl-1H-benzo[d]imidazol-2-yl)piperidin-4-yl)methanamine]",0.18
12,"NC1(c2nc3c(-c4ccoc4)cccc3[nH]2)CCN(c2ncnc3[nH]ncc23)CC1 [Example 111, 4-(4-furan-3-yl-1H-benzo[d]imidazol-2-yl)-1-(1H-pyrazolo[3,4-d]pyrimidin-4-yl)piperidin-4-amine]",0.11
13,"NC1(c2nc3cccnc3[nH]2)CCN(c2ncnc3[nH]ccc23)CC1 [Example 55, 4-(3H-imidazo[5,4-b]pyridin-2-yl)-1-(7H-pyrrolo[2,3-d]pyrimidin-4-yl)piperidin-4-amine]",2.9
14,"NC1(c2nc3ccc(C(F)(F)F)cc3[nH]2)CCN(c2ncnc3[nH]ccc23)CC1 [Example 50, 1-(7H-Pyrrolo[2,3-d]pyrimidin-4-yl)-4-[6-(trifluoromethyl)-1H-benzimidazol-2-yl]piperidin-4-amine]",0.48
15,"Cn1cc(-c2cccc3[nH]c(C4(N)CCN(c5ncnc6[nH]ccc56)CC4)nc23)cn1 [Example 86, 4-(4-(1-Methyl-1H-pyrazol-4-yl)-1H-benzo[d]imidazol-2-yl)-1-(7H-pyrrolo[2,3-d]pyrimidin-4-yl)piperidin-4-amine]",0.13
16,"CS(=O)(=O)c1cccc(-c2ccc3[nH]c(C4(N)CCN(c5ncnc6[nH]ccc56)CC4)nc3c2)c1 [Example 75, 4-[5-(3-methylsulfonylphenyl)-1H-benzimidazol-2-yl]-1-(7H-pyrrolo[2,3-d]pyrimidin-4-yl)piperidin-4-amine]",5.1
17,NC1(c2nc3cc(-c4ccco4)ccc3[nH]2)CCN(c2ncnc3[nH]ccc23)CC1 [Example 72],3
18,"NCC1(c2nc3cc(Br)ccc3[nH]2)CCN(c2ncnc3[nH]ccc23)CC1 [Example 89E, (4-(5-Bromo-1H-benzo[d]imidazol-2-yl)-1-(7H-pyrrolo[2,3-d]pyrimidin-4-yl)piperidin-4-yl)methanamine]",0.081
